{"source": "patent US4086221A", "about": "“Polypeptides and process for producing the same” (Toyo Jozo Kabushiki Kaisha, priority 1975, dated 1978)", "tested_on": "Male rats", "experiment": "Assay method for serum calcium reducing activity (potency against Research Standard B)", "format": "in vivo, rat", "conditions": "intravenous injection 0.2 ml, serum calcium 1 hour after injection, versus Research Standard B", "method": "The assay method for serum calcium reducing activity, the carrier and developing system for thin layer chromatography and conditions for amino acid analysis are as follows:\nSample is diluted adequately with 0.1 N sodium acetate - 0.1% albumin solution. Male rats are subjected individually to intravenous injection with 0.2 ml. of the respective diluted solutions. After 1 hour, all the rats are killed to obtain their respective blood, and serum calcium value of each blood sample is determined by atomic absorption spectrophotomery. On the other hand, Research Standard B, which is an extract obtained from the thyroid gland of the hog, is diluted so as to give dilutions of 2.5, 5, 10 and 20 MRC mU/0.2 ml. respectively. Male rats are subjected to intravenous injection with 0.2 ml. of the respective diluted solutions. Following the same procedure as above, the serum calcium value of the rats is determined one hour after injection. From the potency of the corresponding Research Standard, the potency of the calcitonin in the sample is determined.", "note": "Where a SMILES comes first, the peptide text is derived from it. Bridges are numbered along the chain shown (N, C = ends). [ ]: non-standard residue; d: D form. Asu = N[C@@H](CCCCCC(=O)O)C(=O)O", "data": [{"smiles": "CC(C)C[C@H](NC(=O)[C@H](CCCCN)NC(=O)CNC(=O)[C@H](CC(C)C)NC(=O)[C@@H](NC(=O)[C@@H]1CCCCCC(=O)N[C@@H](CO)C(=O)N[C@@H](CC(N)=O)C(=O)N[C@@H](CC(C)C)C(=O)N[C@@H](CO)C(=O)N[C@@H]([C@@H](C)O)C(=O)N1)C(C)C)C(=O)N[C@@H](CO)C(=O)N[C@@H](CCC(N)=O)C(=O)N[C@@H](CCC(=O)O)C(=O)N[C@@H](CC(C)C)C(=O)N[C@@H](Cc1c[nH]cn1)C(=O)N[C@@H](CCCCN)C(=O)N[C@@H](CC(C)C)C(=O)N[C@@H](CCC(N)=O)C(=O)N[C@H](C(=O)N[C@@H](Cc1ccc(O)cc1)C(=O)N1CCC[C@H]1C(=O)N[C@@H](CCCNC(=N)N)C(=O)N[C@H](C(=O)N[C@@H](CC(=O)O)C(=O)N[C@H](C(=O)NCC(=O)N[C@@H](C)C(=O)NCC(=O)N[C@H](C(=O)N1CCC[C@H]1C(N)=O)[C@@H](C)O)C(C)C)[C@@H](C)O)[C@@H](C)O", "note": "[Example 1] (SNLST[Asu]VLGKLSQELHKLQTYPRTDVGAGTP-NH2; lactam N-6)", "values": [{"measurement": "potency of the purified product (serum calcium reducing activity)", "value": 3450, "unit": "MRC U/mg."}]}]}
